Test results as given in ChEMBL document CHEMBL5244273, “Tuberculosis: An Overview of the Immunogenic Response, Disease Progression, and Medicinal Chemistry Efforts in the Last Decade toward the Development of Potential Drugs for Extensively Drug-Resistant Tuberculosis Strains” (J Med Chem, 2021).
≈ marks a conversion by molar mass, not a printed value.

Key:
[1] = tested on: Mycobacterium tuberculosis; test: Antimycobacterial activity against Mycobacterium tuberculosis H37Rv assessed as inhibition of bacterial growth by resazurin dye based fluorescence analysis; assay type: functional
[2] = tested on: Mycobacterium tuberculosis; test: Potentiation of ethionamide induced antibacterial activity against Mycobacterium tuberculosis H37Rv expressing GFP incubated for 5 days by fluorescence based analysis; assay type: functional, organism-based; conditions: 120 h
[3] = tested on: Mycobacterium tuberculosis; test: Antimycobacterial activity against Mycobacterium tuberculosis H37Rv infected in human THP-1 cells assessed as inhibition of bacterial growth; assay type: functional, organism-based

SMILES	MIC [1]	EC50 [2]	IC50 [3]
O=S(=O)(NCCO)c1ccc(-c2nnn(Cc3ccc(F)cn3)n2)c(F)c1F	0.1 µM (≈ 0.0414 µg/mL)		
O=S(=O)(NCCO)c1ccc(-c2nnn(Cc3ccnnc3)n2)cc1	0.1 µM (≈ 0.0361 µg/mL)		
COC(=O)CNS(=O)(=O)c1ccc(-c2nnn(Cc3ccc(F)cc3)n2)cc1	0.1 µM (≈ 0.0405 µg/mL)		
O=S(=O)(NCCO)c1ccc(-c2nnn(Cc3cccnn3)n2)cc1	0.1 µM (≈ 0.0361 µg/mL)		
O=C(CCC(F)(F)F)N1CCC2(CC1)CC(F)=NO2		< 0.038 µM	0.05 µM
O=C(CCC(F)(F)F)N1CCC(c2cccc(C(F)(F)F)n2)CC1		< 0.15 µM	0.01 µM
O=C(CCC(F)(F)F)N1CCC(c2cncc(C(F)(F)F)n2)CC1		< 0.15 µM	0.01 µM
O=C(CCC(F)(F)F)N1CCC(c2cncc(F)c2)CC1		< 0.15 µM	0.01 µM
N#CCNS(=O)(=O)c1ccc(-c2nnn(CC3CCCCO3)n2)cc1 (centres undefined)	0.1 µM (≈ 0.0362 µg/mL)		
NC(=O)CNS(=O)(=O)c1ccc(-c2nnn(Cc3ccc(F)cc3)n2)cc1Cl	0.1 µM (≈ 0.0425 µg/mL)		
O=C(CCC(F)(F)F)N1CCC(c2cncc(C(F)(F)F)c2)CC1		< 0.15 µM	0.01 µM
NC(=O)CNS(=O)(=O)c1ccc(-c2nnn(Cc3ccc(F)cc3)n2)cc1	0.1 µM (≈ 0.039 µg/mL)		
O=C(CCC(F)(F)F)N1CCC(c2ccc(F)nc2F)CC1		< 0.15 µM	0.01 µM
CCOc1ccc(Cn2nnc(-c3ccc(S(=O)(=O)NCCO)cc3)n2)cc1	0.1 µM (≈ 0.0403 µg/mL)		
O=S(=O)(NCCO)c1ccc(-c2nnn(Cc3ccc(C(F)(F)F)cc3)n2)cc1	0.1 µM (≈ 0.0427 µg/mL)		
N#CCNS(=O)(=O)c1ccc(-c2nnn(Cc3cnccn3)n2)cc1	0.1 µM (≈ 0.0356 µg/mL)		
O=C(CCC(F)(F)F)N1CCC(c2ccc(F)cn2)CC1		< 0.15 µM	0.01 µM
COc1ccc(C2CCN(C(=O)CCC(F)(F)F)CC2)cn1		< 0.15 µM	0.01 µM
N#CCNS(=O)(=O)c1ccc(-c2cn(Cc3ccncc3)nn2)cc1	0.1 µM (≈ 0.0354 µg/mL)		
CC(c1ccc(F)cc1)n1nnc(-c2ccc(S(=O)(=O)NCC(N)=O)cc2)n1 (centres undefined)	0.1 µM (≈ 0.0404 µg/mL)		
O=S(=O)(NCCO)c1ccc(-c2cn(Cc3ccncc3)nn2)cc1	0.1 µM (≈ 0.0359 µg/mL)		
COc1cc(-c2nnn(Cc3ccc(F)cc3)n2)ccc1S(=O)(=O)NCC(N)=O	0.1 µM (≈ 0.042 µg/mL)		
O=C(CCC(F)(F)F)N1CCC(c2cc(C(F)(F)F)ccn2)CC1		< 0.15 µM	0.01 µM
O=C(CCC(F)(F)F)N1CCC(c2ccnc(C(F)(F)F)c2)CC1		< 0.15 µM	0.01 µM
O=S(=O)(NCCO)c1ccc(-c2nnn(Cc3ccc(F)cn3)n2)c(F)c1	0.1 µM (≈ 0.0396 µg/mL)		
COc1cc(-c2nnn(CC3CCC(F)(F)CC3)n2)ccc1S(=O)(=O)NCC(N)=O	0.1 µM (≈ 0.0444 µg/mL)		

SMILES	MIC [1]	EC50 [2]	IC50 [3]
Cc1cc(S(=O)(=O)NCCO)ccc1-c1nnn(Cc2ccc(F)cn2)n1	0.1 µM (≈ 0.0392 µg/mL)		
O=S(=O)(NCCO)c1ccc(-c2nnn(CC3CCCOC3)n2)cc1 (centres undefined)	0.1 µM (≈ 0.0367 µg/mL)		
Cc1cc(-c2nnn(CC3CCCCO3)n2)ccc1S(=O)(=O)NCCO (centres undefined)	0.1 µM (≈ 0.0381 µg/mL)		
Cc1ccc(Cn2cc(-c3ccc(S(=O)(=O)NCCO)cc3)nn2)nc1	0.1 µM (≈ 0.0373 µg/mL)		
COc1ccc(Cn2nnc(-c3ccc(S(=O)(=O)NCCO)c(OC)c3)n2)nc1	0.1 µM (≈ 0.042 µg/mL)		
N#CNS(=O)(=O)c1ccc(-c2nnn(Cc3ccc(F)cn3)n2)cc1	0.1 µM (≈ 0.0359 µg/mL)		
CC1=NOC2(CCN(C(=O)CCC(F)(F)F)CC2)C1		< 0.038 µM	0.05 µM
O=S(=O)(NCCO)c1ccc(-c2nnn(CC3CCCCO3)n2)c(F)c1 (centres undefined)	0.1 µM (≈ 0.0385 µg/mL)		
CNS(=O)(=O)c1ccc(-c2nnn(Cc3ccc(C#N)cc3)n2)cc1	0.1 µM (≈ 0.0354 µg/mL)		
COc1cc(-c2nnn(Cc3ccncc3)n2)ccc1S(=O)(=O)NCC#N	0.1 µM (≈ 0.0385 µg/mL)		
N#CCNS(=O)(=O)c1ccc(-c2nnn(Cc3ccc(F)cc3)n2)cc1	0.1 µM (≈ 0.0372 µg/mL)		
COc1cc(-c2nnn(C(C)c3ccc(F)cc3)n2)ccc1S(=O)(=O)NCC(N)=O (centres undefined)	0.1 µM (≈ 0.0434 µg/mL)		
O=C(CCC(F)(F)F)N1CCC(c2ccnc(F)c2)CC1		< 0.15 µM	0.01 µM
N#Cc1ccc(Cn2cc(-c3ccc(S(=O)(=O)NCCO)cc3)nn2)cc1	0.1 µM (≈ 0.0383 µg/mL)		
N#CCNS(=O)(=O)c1ccc(-c2nnn(CC3CCOCC3)n2)cc1	0.1 µM (≈ 0.0362 µg/mL)		
O=S(=O)(NCCO)c1ccc(-c2nnn(Cc3ccc(F)cn3)n2)c(Cl)c1	0.1 µM (≈ 0.0413 µg/mL)		
Cc1cnc(Cn2nnc(-c3ccc(S(=O)(=O)NCC#N)cc3)n2)cn1	0.1 µM (≈ 0.037 µg/mL)		
NC(=O)CNS(=O)(=O)c1ccc(-c2nnn(CC3CCCCO3)n2)cc1 (centres undefined)	0.1 µM (≈ 0.038 µg/mL)		
COc1cc(-c2nnn(Cc3ccc(F)cn3)n2)ccc1S(=O)(=O)NCCO	0.1 µM (≈ 0.0408 µg/mL)		
Cc1cc(C2CCN(C(=O)CCC(F)(F)F)CC2)ccn1		< 0.15 µM	0.01 µM
O=C(CCC(F)(F)F)N1CCC(c2ccc(F)nc2)CC1		< 0.15 µM	0.01 µM
O=C(CCC(F)(F)F)N1CCC(c2cccc(F)n2)CC1		< 0.15 µM	0.01 µM
CC(C)COC1=NOC2(CCN(C(=O)CCC(F)(F)F)CC2)C1		< 0.038 µM	0.05 µM
O=S(=O)(NCCO)c1ccc(-c2nnn(CC3CCCCC3)n2)cc1F	0.1 µM (≈ 0.0383 µg/mL)		
N#CC1=NOC2(CCN(C(=O)CCC(F)(F)F)CC2)C1		< 0.038 µM	0.05 µM
Cc1cc(-c2nnn(Cc3ccc(F)cn3)n2)ccc1S(=O)(=O)NCCO	0.1 µM (≈ 0.0392 µg/mL)		
